Laboratory results from patent US20210345602A1, “MAMMAL CELL PRESERVING SOLUTION CONTAINING ACARBOSE OR STACHYOSE” (OTSUKA PHARMACEUTICAL FACTORY, INC., priority 2018, published 2021).

Assays:
Format in all cases: cell-based
[1] = tested on: bone marrow-derived human mesenchymal stem cells (hMSCs); experiment: Viability of hMSCs after preservation in test isotonic liquid, trypan blue staining method; settings: for Cell viability (%) (Mean ± Standard deviation [SD]): n=3; for effect of suppressing the decrease in cell viability (screening of 93 saccharides): saccharide 87.5 mM in Lactec injection, compared with 88 mM trehalose or lactated Ringer's solution
Protocol: [1] 4×10^5 hMSCs were added to a 75-cm^2 flask and cultured at 37° C. in a 5% CO2 incubator in the presence of a medium. The state of the cells was observed under a microscope, and the cells were cultured until about 80% confluent. The medium was removed, and the hMSCs were rinsed with 8-mL PBS(−). The PBS(−) was removed, and 3.75-mL trypsin-EDTA (manufactured by Lonza) was added thereto, and the mixture was left standing at room temperature for 5 minutes. The hMSCs were observed under a microscope and slowly shaken until about 90% of them were exfoliated. 3.75 mL of medium was added thereto, to stop the trypsin reaction, and the hMSCs were collected by pipetting and transferred to a 50-mL centrifuge tube. […] Centrifugation was performed at 600×g and 22° C. for 5 minutes. The supernatant (medium) was removed, 1.5 mL of PBS(−) was added thereto, and the precipitate (hMSCs) was suspended. The number of cells was measured and adjusted with PBS(−) to 5×10^3 cells/mL, to prepare PBS containing hMSCs. [Method for Preserving hMSCs in Each Test Isotonic Liquid]
[1] 0.5 mL of the PBS containing hMSCs prepared was dispensed into each tube and centrifuged (at 600×g for 5 minutes). […] [Analysis of Viability of hMSCs by Trypan Blue Staining Method]
[1] […] Thereafter, 20 μL of a trypan blue staining solution (manufactured by Gibco) was mixed thereto. As a comparative control, 20 μL (equivalent to 1×10^4 cells) was collected from each PBS containing hMSCs before suspension in each test isotonic liquid (before preservation at 4° C.) and transferred to a tube. Thereafter, 20 μL of a trypan blue staining solution was mixed thereto. The total number of cells and the number of trypan blue-positive cells (dead cells) were measured under a microscope using OneCell Counter (manufactured by Bio Medical Science), to calculate the percentage of trypan blue-negative cells to the total number of cells, that is, the cell viability.

rat hepatocytes = experiment: Viability of rat hepatocytes after preservation in test isotonic liquid, trypan blue staining method; settings: rat hepatocytes preserved at 4° C. for 24 hours; n=6; Pre 70.8±3.32
Protocol: A stock tube of rat hepatocytes was taken out of a liquid nitrogen tank and thawed in a constant temperature bath at 37° C. […] Immediately after thawing, it was allowed to stand on ice and transferred to a 50-mL centrifuge tube. […] 25 mL of hepatocyte wash medium (which will be hereinafter referred to as “wash medium”) (manufactured by GIBCO) cooled with ice was added dropwise. […] Centrifugation was performed at 50×g and 4° C. for 3 minutes. […] The supernatant (wash medium) was removed, 6 mL of wash medium was added thereto, and the precipitate (rat hepatocytes) was suspended by pipetting 2 to 3 times. […] The number of cells was measured and adjusted with a wash medium to 5×10^3 cells/mL, to prepare a wash medium containing rat hepatocytes.
0.5 mL of the wash medium containing rat hepatocytes prepared was dispensed into each tube and centrifuged (at 50×g and 4° C. for 3 minutes). […] The supernatant (wash medium) was removed, and the precipitate (rat hepatocytes) was suspended in 0.5 mL of each test isotonic liquid and preserved at 4° C. for 24 hours.

CD8-positive T cells = experiment: Viability of expansion-cultured CD8-positive T cells after preservation, trypan blue staining method; settings: CD8-positive T cells preserved at 5° C. for 24 hours; n=3
Protocol: Cryopreserved CD8-positive T cells were thawed, then washed with a lymphocyte culture medium (LGM3, manufactured by Lonza), and incubated in the medium for about 1 hour (at 37° C. in 5% CO2). […] The medium containing the CD8-positive T cells was separated and centrifuged (at 300×g and room temperature for 10 minutes). […] The supernatant was removed, and the cells were suspended in TLY CULTURE kit 25 (manufactured by GC LYMPHOTEC Inc.) and the CD8-positive T cells were expansion-cultured under conditions of 37° C. and 5% CO2 for 7 days.
CD8-positive T cells (with a cell concentration of about 1.1×10^6 cells/5 mL) expansion-cultured for 7 days were washed with Lactec injection containing 88 mM trehalose, dispensed in Stemfull tube (manufactured by Sumitomo Bakelite Co., Ltd.), and then centrifuged (at 300×g and room temperature for 10 minutes). […] The supernatant was removed, and the precipitate (CD8-positive T cells) was suspended in 3 kinds of test isotonic liquids (Lactec injection containing 88 mM acarbose, Lactec injection containing 88 mM trehalose, and Lactec injection) and then preserved at 5° C. for 24 hours. […] After preservation for 24 hours, the cell viability was measured according to the method described in procedure [2] above.

[2] = tested on: bone marrow-derived human mesenchymal stem cells (hMSCs); experiment: Cell aggregation level of hMSCs after preservation, phase contrast microscope; settings: hMSCs preserved at 25° C. for 48 hours; 88 mM acarbose in Lactec injection
Protocol: The hMSCs were preserved in each test isotonic liquid at 25° C. for 48 hours according to the method described in Example 1. Each test isotonic liquid containing the hMSCs after preservation was partially collected, and the presence or absence of cell aggregates in which three or more cells gather together was observed under a phase contrast microscope.

[3] = hMSCs preserved at 4° C. for 3 days, α-glucosidase inhibitors 175 mM, Pre 98.5±0.6
[4] = hMSCs preserved at 4° C. for 3 days
[5] = hMSCs preserved at 4° C. for 2 days, Pre 94.7±2.1
[6] = hMSCs preserved at 5° C. for 4 days, Pre 93.7±2.0%

Structure (SMILES) | effect of suppressing the decrease in cell viability (screening of 93 saccharides) [1, 4] | Cell viability (%) (Mean ± Standard deviation [SD]) [1, 5] | further results
OCCN1C[C@H](O)[C@@H](O)[C@H](O)[C@H]1CO [miglitol] |  |  | Cell viability (%) (Mean ± Standard deviation [SD]) [1, 3]: cell viability was almost unchanged
CC1(C)O[C@H](CO)[C@@H](CO)O1 [(−)-2,3-O-iso propylidene-D-threitol] | cell viability decreased |  | 
O=C(O)[C@H](O)[C@@H](O)[C@H](O[C@@H]1O[C@H](CO)[C@H](O)[C@H](O)[C@H]1O)[C@H](O)CO [D-lactobionic acid] | cell viability decreased |  | 
OC[C@H]1O[C@@](CO)(OC[C@@]2(OC[C@@]3(O[C@H]4O[C@H](CO)[C@@H](O)[C@H](O)[C@H]4O)O[C@H](CO)[C@@H](O)[C@@H]3O)O[C@H](CO)[C@@H](O)[C@@H]2O)[C@@H](O)[C@@H]1O [nystose] |  | such an increase in cell viability was not observed | 
C[C@H]1O[C@H](O[C@H]2[C@H](O)[C@@H](O)[C@@H](O[C@H]3[C@H](O)[C@@H](O)C(O)O[C@@H]3CO)O[C@@H]2CO)[C@H](O)[C@@H](O)[C@@H]1N[C@H]1C=C(CO)[C@@H](O)[C@H](O)[C@H]1O (stereo partly shown) [acarbose] | higher effect of suppressing the decrease in cell viability than trehalose | cell viability increased | Cell viability (%) (Mean ± Standard deviation [SD]) [1, 3]: cell viability increased; Cell viability (%) (Mean ± Standard deviation [SD]) (rat hepatocytes): cell viability significantly increased; Cell viability (%) (Mean ± Standard deviation [SD]) 24 hours (CD8-positive T cells): cell viability significantly increased; presence or absence of cell aggregates (three or more cells) [2]: almost no cell aggregates were observed
OCC(CO)N[C@H]1C[C@](O)(CO)[C@@H](O)[C@H](O)[C@H]1O [voglibose] |  |  | Cell viability (%) (Mean ± Standard deviation [SD]) [1, 3]: cell viability was almost unchanged
O=C[C@H](O)[C@@H](O)[C@@H](O)[C@H](O)C(=O)O [D-galacturonic acid] | cell viability decreased |  | 
N[C@@H]1C(O)O[C@H](CO)[C@@H](O)[C@@H]1O (stereo partly drawn) [D-mannosamine] | cell viability decreased |  | 
OC[C@H]1O[C@H](OC[C@H]2O[C@H](OC[C@H]3O[C@H](O[C@]4(CO)O[C@H](CO)[C@@H](O)[C@@H]4O)[C@H](O)[C@@H](O)[C@@H]3O)[C@H](O)[C@@H](O)[C@H]2O)[C@H](O)[C@@H](O)[C@H]1O [stachyose] | higher effect of suppressing the decrease in cell viability than trehalose | cell viability increased | Cell viability (%) (Mean ± Standard deviation [SD]) [1, 6]: cell viability significantly increased at any concentration
OC[C@H]1O[C@H](O[C@H]2O[C@H](CO)[C@@H](O)[C@H](O)[C@H]2O)[C@H](O)[C@@H](O)[C@@H]1O [trehalose] |  |  | Cell viability (%) (Mean ± Standard deviation [SD]) [1, 6]: cell viability increased; Cell viability (%) (Mean ± Standard deviation [SD]) 24 hours (CD8-positive T cells): cell viability increased
OC[C@H]1O[C@H](O[C@H]2[C@H](O)[C@@H](O)[C@@H](O[C@H]3[C@H](O)[C@@H](O)[C@@H](O[C@H]4[C@H](O)[C@@H](O)C(O)O[C@@H]4CO)O[C@@H]3CO)O[C@@H]2CO)[C@H](O)[C@@H](O)[C@@H]1O (stereo partly shown) [maltotetraose] |  | such an increase in cell viability was not observed | 
